This assay has as its target T1, USP25 (USP25-His6, Boston Biochem E-546) (Homo sapiens, UniProt Q9UHP3).
T1 construct: His6; purchased Boston Biochem E-546
T1 sequence (Q9UHP3 1-1055): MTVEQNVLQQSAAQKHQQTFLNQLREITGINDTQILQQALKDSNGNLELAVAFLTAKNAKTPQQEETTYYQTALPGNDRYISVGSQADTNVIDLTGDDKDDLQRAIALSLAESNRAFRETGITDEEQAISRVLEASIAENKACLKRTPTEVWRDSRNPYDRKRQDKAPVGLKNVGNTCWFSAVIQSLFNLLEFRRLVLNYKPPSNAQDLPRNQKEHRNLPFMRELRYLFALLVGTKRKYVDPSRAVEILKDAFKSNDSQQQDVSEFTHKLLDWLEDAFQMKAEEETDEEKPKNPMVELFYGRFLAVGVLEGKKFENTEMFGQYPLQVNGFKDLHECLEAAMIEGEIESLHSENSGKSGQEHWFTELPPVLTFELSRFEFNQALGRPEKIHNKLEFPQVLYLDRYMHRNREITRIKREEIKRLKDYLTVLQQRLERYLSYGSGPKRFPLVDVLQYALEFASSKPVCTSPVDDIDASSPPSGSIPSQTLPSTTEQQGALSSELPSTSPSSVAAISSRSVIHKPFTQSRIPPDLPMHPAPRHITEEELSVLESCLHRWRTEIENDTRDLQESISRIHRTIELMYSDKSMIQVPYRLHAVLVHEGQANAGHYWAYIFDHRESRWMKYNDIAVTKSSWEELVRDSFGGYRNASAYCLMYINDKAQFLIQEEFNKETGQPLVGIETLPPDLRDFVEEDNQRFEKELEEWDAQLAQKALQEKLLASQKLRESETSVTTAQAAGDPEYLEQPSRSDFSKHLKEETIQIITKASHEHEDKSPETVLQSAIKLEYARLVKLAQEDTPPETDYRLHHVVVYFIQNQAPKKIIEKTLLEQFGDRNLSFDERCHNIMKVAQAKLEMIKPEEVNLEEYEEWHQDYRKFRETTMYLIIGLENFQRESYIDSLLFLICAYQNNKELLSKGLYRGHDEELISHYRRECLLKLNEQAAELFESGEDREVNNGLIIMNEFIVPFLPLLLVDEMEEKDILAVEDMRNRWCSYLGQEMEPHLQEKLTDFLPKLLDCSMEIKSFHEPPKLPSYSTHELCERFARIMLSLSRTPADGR
As to the kind of experiment: Ubiquitin-Rhodamine 110 Assay for USP25 Activity, Example A-2. It counts as biochemical. The settings on record: Ubiquitin-Rhodamine 110 assay, Example A-2; read-out: USP25 A-2 IC50 range. In short, it runs like this:
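Inhibition is quantified as IC50 by 4-parameter fit of fluorescence (485/535 nm) from Ub-Rh110 hydrolysis. Enzyme USP25-His6 at 75 pM with 30 min compound preincubation, then 25 nM substrate for 45 min at room temperature in pH 8.0 Tris buffer containing BME.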
What is called IC50 is the midpoint of a concentration-inhibition curve. As to `Cc1ccc2c(N)c(C(=O)N[C@H]3COc4cc([C@H]5CCNC[C@H]5F)ccc4C3)sc2n1` [Example 82, 3-amino-N-((R)-7-((3S,4R)-3-fluoropiperidin-4-yl)chroman-3-yl)-6-methylthieno[2,3-b]pyridine-2-carboxamide], the 50% inhibitory concentration (IC50) lay within 1 to 50 nM.

With `Cc1ccc2c(N)c(C(=O)N[C@H]3COc4c(F)c(N5CCNCC5)c(F)c(F)c4C3)sc2n1` [Example 35, 3-amino-6-methyl-N-[(3R)-5,6,8-trifluoro-7-(piperazin-1-yl)-3,4-dihydro-2H-1-benzopyran-3-yl]thieno[2,3-b]pyridine-2-carboxamide], the IC50 lay within 50 to 200 nM.

Regarding `Cc1ccc2c(N)c(C(=O)N[C@H]3COc4cc([C@H]5CCNC[C@H]5O)ccc4C3)sc2n1` [Example 62, 3-amino-N-((R)-7-((3S,4R)-3-hydroxypiperidin-4-yl)chroman-3-yl)-6-methylthieno[2,3-b]pyridine-2-carboxamide], the IC50 was in the range of 1 to 50 nM.

In the case of `Cc1cnc2c(N)c(C(=O)N[C@H]3COc4cc(N5CCNCC5)c(C#N)c(F)c4C3)sc2n1` [Example 67, (R)-7-amino-N-(6-cyano-5-fluoro-7-(piperazin-1-yl)chroman-3-yl)-3-methylthieno[2,3-b]pyrazine-6-carboxamide], the half-inhibitory concentration (IC50) fell in the range of 50 to 200 nM.

On to `Cc1ccc2c(N)c(C(=O)N[C@H]3COc4cc([C@@H]5CCNC[C@@H]5F)ccc4C3)sc2n1` [Example 83, 3-amino-N-((R)-7-((3R,4S)-3-fluoropiperidin-4-yl)chroman-3-yl)-6-methylthieno[2,3-b]pyridine-2-carboxamide], for which the IC50 lay in the range of 50 to 200 nM.

As for `Cc1ccc2c(N)c(C(=O)N[C@H]3COc4cc([C@H]5CCNC[C@@H]5O)ccc4C3)sc2n1` [Example 64, 3-amino-N-((R)-7-((3R,4R)-3-hydroxypiperidin-4-yl)chroman-3-yl)-6-methylthieno[2,3-b]pyridine-2-carboxamide], the IC50 fell in the range of 50 to 200 nM.

For `O=C(N[C@H]1COc2cc(N3CCNCC3)ccc2C1)c1cnc2c(c1)CC[C@H]2O` [Example 57, (R)-7-hydroxy-N-((R)-7-(piperazin-1-yl)chroman-3-yl)-6,7-dihydro-5H-cyclopenta[b]pyridine-3-carboxamide], the half-maximal inhibitory concentration (IC50) was above 2000 nM.

With `COC[C@H]1CN(c2ccc3c(n2)CC[C@H](NC(=O)c2sc4nc(C)ccc4c2N)C3)C[C@H]1N` (single isomer, unassigned) [Example 24-2], the 50% inhibitory concentration (IC50) fell in the range of 200 to 2000 nM.

Take `Cc1ccc2c(N)c(C(=O)N[C@@H]3COc4cc(N5CCNCC5)cc(Cl)c4C3)sc2n1` [Example 49, (S)-3-amino-N-(5-chloro-7-(piperazin-1-yl)chroman-3-yl)-6-methylthieno[2,3-b]pyridine-2-carboxamide]: the concentration for half-maximal inhibition (IC50) was above 2000 nM.

Regarding `Cc1cnc2c(N)c(C(=O)N[C@H]3COc4c(C#N)c(N5CCNCC5)cc(F)c4C3)sc2n1` [Example 60, (R)-7-amino-N-(8-cyano-5-fluoro-7-(piperazin-1-yl)chroman-3-yl)-3-methylthieno[2,3-b]pyrazine-6-carboxamide], the 50% inhibitory concentration (IC50) was 200 to 2000 nM.

Consider `Cc1ccc2c(N)c(C(=O)N[C@H]3CCc4nc(N5C[C@@H](N)[C@H](C(F)F)C5)ccc4C3)sc2n1` [Example 25, 3-Amino-N-[(6S)-2-[(3S,4R)-3-amino-4-(difluoromethyl)pyrrolidin-1-yl]-5,6,7,8-tetrahydroquinolin-6-yl]-6-methylthieno[2,3-b]pyridine-2-carboxamide], for which the 50% inhibitory concentration (IC50) lay within 200 to 2000 nM.

With `CCn1ccc2cc(C(=O)N[C@H]3COc4c(F)c([C@@H]5CCNC[C@@H]5O)cc(F)c4C3)nnc21` [Example 84, N-((R)-5,8-difluoro-7-((3R,4S)-3-hydroxypiperidin-4-yl)chroman-3-yl)-7-ethyl-7H-pyrrolo[2,3-c]pyridazine-3-carboxamide], the half-inhibitory concentration (IC50) is above 2000 nM.

Regarding `CCc1cnc2sc(C(=O)N[C@H]3COc4cc(N5CCNCC5)ccc4C3)c(N)c2n1` [Example 36, (R)-7-amino-2-ethyl-N-(7-(piperazin-1-yl)chroman-3-yl)thieno[2,3-b]pyrazine-6-carboxamide], the IC50 lay in the range of 200 to 2000 nM.

Turning to `Cc1ccc2c(N)c(C(=O)N[C@H]3COc4cc([C@@H]5CCNC[C@H]5O)ccc4C3)sc2n1` [Example 65, 3-amino-N-((R)-7-((3S,4S)-3-hydroxypiperidin-4-yl)chroman-3-yl)-6-methylthieno[2,3-b]pyridine-2-carboxamide], the IC50 fell in the range of 50 to 200 nM.

As for `Cc1ccc2c(N)c(C(=O)N[C@@H]3COc4cc(N5C[C@H]6CNC[C@@H]6C5)ccc4C3)sc2n1` [Example 44, 3-amino-N-((S)-7-((3aR,6aR)-hexahydropyrrolo[3,4-c]pyrrol-2(1H)-yl)chroman-3-yl)-6-methylthieno[2,3-b]pyridine-2-carboxamide], the IC50 was above 2000 nM.

As to `Cc1nc2sc(C(=O)N[C@H]3COc4cc(N5CC6CCC(C5)N6)c(F)cc4C3)c(N)c2s1` [Example 47, N-((3R)-7-(3,8-diazabicyclo[3.2.1]octan-3-yl)-6-fluorochroman-3-yl)-6-amino-2-methylthieno[2,3-d]thiazole-5-carboxamide], the IC50 was above 2000 nM.

As to `Cc1ccc2c(N)c(C(=O)N[C@H]3COc4cc(N5CC6CNCC(C5)O6)c(F)c(F)c4C3)sc2n1` [Example 79, N-((3R)-7-(9-oxa-3,7-diazabicyclo[3.3.1]nonan-3-yl)-5,6-difluorochroman-3-yl)-3-amino-6-methylthieno[2,3-b]pyridine-2-carboxamide], the IC50 lay within 1 to 50 nM.

With `Cc1cnc2c(N)c(C(=O)N[C@H]3COc4cc(N5CC6CCC(C5)N6)c(F)cc4C3)sc2n1` (single isomer, unassigned) [Example 40], the half-maximal inhibitory concentration (IC50) is 50 to 200 nM.

Consider `Cc1cnc2c(N)c(C(=O)N[C@@H]3COc4cc(N5CC6CCC(C5)N6)c(F)cc4C3)sc2n1` (single isomer, unassigned) [Example 41], for which the IC50 was above 2000 nM.

As for `Cc1ccc2c(N)c(C(=O)N[C@@H]3CCc4nc(N5CCNCC5)c(F)cc4C3)sc2n1` (single isomer, unassigned) [Example 30-2], the IC50 is above 2000 nM.

With `Cc1ccc2c(N)c(C(=O)N[C@H]3COc4cc(N5C[C@@H]6CCNC[C@@H]65)ccc4C3)sc2n1` (single isomer, unassigned) [Example 33-3], the IC50 fell in the range of 50 to 200 nM.

With `Cc1cc(C(F)F)c2c(N)c(C(=O)N[C@H]3COc4cc(N5CC6CNCC(C5)O6)ccc4C3)sc2n1` [Example 88, N-((3R)-7-(9-oxa-3,7-diazabicyclo[3.3.1]nonan-3-yl)chroman-3-yl)-3-amino-4-(difluoromethyl)-6-methylthieno[2,3-b]pyridine-2-carboxamide], the 50% inhibitory concentration (IC50) was 1 to 50 nM.

In the case of `Cc1ccc2c(N)c(C(=O)N[C@@H]3Cc4ccc(N5CCNCC5)nc4C4(CC4)C3)sc2n1` (single isomer, unassigned) [Example 31-3, 3-amino-6-methyl-N-[(6′S)-2-(piperazin-1-yl)-6′,7′-dihydro-5′H-spiro[cyclopropane-1,8′-quinoline]-6′-yl]thieno[2,3-b]pyridine-2-carboxamide], the IC50 was above 2000 nM.

With `Cc1ccc2c(N)c(C(=O)N[C@@H]3CCc4nc(N5CCNCC5)ccc4C3)sc2n1` (single isomer, unassigned) [Example 23-8], the IC50 was above 2000 nM.

Turning to `Cc1ccc2c(N)c(C(=O)N[C@H]3CCc4nc(N5CCN[C@@H](C)C5)ccc4C3)sc2n1` (single isomer, unassigned) [Example 23-15], the concentration for half-maximal inhibition (IC50) was in the range of 200 to 2000 nM.

Regarding `Cc1ccc2c(N)c(C(=O)N[C@H]3COc4cc([C@H]5CCNC[C@@H]5F)ccc4C3)sc2n1` [Example 80, 3-amino-N-((R)-7-((3R,4R)-3-fluoropiperidin-4-yl)chroman-3-yl)-6-methylthieno[2,3-b]pyridine-2-carboxamide], the concentration for half-maximal inhibition (IC50) was in the range of 50 to 200 nM.

With `Cc1ccc2c(N)c(C(=O)N[C@H]3COc4cc([C@@H]5CCNC[C@H]5F)ccc4C3)sc2n1` [Example 81, 3-amino-N-((R)-7-((3S,4S)-3-fluoropiperidin-4-yl)chroman-3-yl)-6-methylthieno[2,3-b]pyridine-2-carboxamide], the IC50 is 50 to 200 nM.

Turning to `CCc1cnc2sc(C(=O)N[C@@H]3COc4cc(N5CCNCC5)ccc4C3)c(N)c2n1` [Example 37, (S)-7-amino-2-ethyl-N-(7-(piperazin-1-yl)chroman-3-yl)thieno[2,3-b]pyrazine-6-carboxamide], the IC50 was above 2000 nM.

These data come from US11524966B1 (Valo Early Discovery, Inc., priority 2017, dated 2022).
